Test results published in PMC4453552 (mBio, 2015).
Read-outs that look alike come from different tables or passages of the source.

What was measured:
N-Flo1p [1] = biological target: T1, N-Flo1p (Saccharomyces cerevisiae, UniProt P32768); assay: Fluorescence titration of carbohydrates with nonglycosylated N-Flo1p; format: binding
T1 sequence (P32768 23-271): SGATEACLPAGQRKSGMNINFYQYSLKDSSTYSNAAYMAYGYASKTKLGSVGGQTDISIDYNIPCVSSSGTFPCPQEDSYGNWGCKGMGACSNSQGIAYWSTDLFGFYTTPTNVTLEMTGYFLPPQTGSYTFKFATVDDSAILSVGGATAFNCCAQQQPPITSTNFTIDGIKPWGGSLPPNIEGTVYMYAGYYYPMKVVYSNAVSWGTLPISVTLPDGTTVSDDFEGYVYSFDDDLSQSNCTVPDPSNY

N-Lg-Flo1p [2] = biological target: T2, N-Lg-Flo1p (Saccharomyces pastorianus, UniProt B3IUB3, P58Q); conditions: cited from earlier work
T2 sequence (B3IUB3 23-213 P58Q): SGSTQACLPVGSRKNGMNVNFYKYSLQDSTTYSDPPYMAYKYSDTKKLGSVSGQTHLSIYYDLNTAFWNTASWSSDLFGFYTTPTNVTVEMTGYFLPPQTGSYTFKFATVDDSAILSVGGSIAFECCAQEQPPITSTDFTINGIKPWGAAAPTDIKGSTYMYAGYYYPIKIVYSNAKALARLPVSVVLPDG

N-Flo1p [3] = biological target: T3, N-Flo1p (Saccharomyces cerevisiae, UniProt P32768); assay: AFM force spectroscopy of glycosylated N-Flo1p self-binding; conditions: Tris solution with 20 mM EDTA and 100 mM mannose
T3 sequence (P32768 25-271 limits assumed): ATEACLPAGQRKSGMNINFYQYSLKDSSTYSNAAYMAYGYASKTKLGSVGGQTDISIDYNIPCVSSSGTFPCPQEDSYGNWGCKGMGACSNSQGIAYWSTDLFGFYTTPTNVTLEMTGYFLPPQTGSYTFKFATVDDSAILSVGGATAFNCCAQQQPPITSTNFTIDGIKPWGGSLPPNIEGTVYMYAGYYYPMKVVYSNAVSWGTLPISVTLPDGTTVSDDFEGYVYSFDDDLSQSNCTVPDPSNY

N-Flo5p = conditions: cited from earlier work
N-Lg-Flo1p [4] = biological target: T2, N-Lg-Flo1p; assay: Fluorescence titration of carbohydrates with N-Lg-Flo1p; format: binding; conditions: construct from the CBS1513 strain
N-Flo1p [5] = biological target: T3, N-Flo1p; assay: N-Flo1p self-binding by surface plasmon resonance; conditions: SPR, in the presence of Ca2+
[6] = read-out: Equilibrium dissociation constant (KD) N-Flo1p, fluorescence titration, nonglycosylated N-Flo1p, this work (footnote a)

Question: With `OC[C@H]1O[C@H](O[C@@H]2C(O)O[C@H](CO)[C@@H](O)[C@@H]2O)[C@@H](O)[C@@H](O)[C@@H]1O` (stereo partly drawn) [Mα-1,2-M, α-1,2-mannobiose] as the molecule, how does the “Fold difference in binding between the mono- and disaccharides (N-Flo1p)” value (N-Flo1p [1]; α-1,2-mannobiose versus D-mannose) read?
Answer: 10 fold

Question: For `O=P(O)(O)OC1O[C@H](CO)[C@@H](O)[C@H](O)[C@@H]1O` (some centres unmarked) [mannose-1-phosphate], which “Affinity for N-Lg-Flo1p, in words” value (N-Lg-Flo1p [2]) is on record?
Answer: micromolar-affinity

Question: For `O=C(O)CN(CCN(CC(=O)O)CC(=O)O)CC(=O)O` [EDTA], which “Effect on unbinding events of N-Flo1p self-binding” value (N-Flo1p [3]) is on record?
Answer: longer-distance events disappeared almost completely

Question: With `OC[C@H]1O[C@H](O[C@H]2[C@H](O)[C@@H](CO)OC(O)[C@H]2O)[C@@H](O)[C@@H](O)[C@@H]1O` (stereo partly drawn) [Mα-1,3-M, α-1,3-linked mannobiose] as the molecule, how does the Kd (N-Flo1p [1]; [6]) read?
Answer: 3.3 ± 0.34 mM

Question: What about the “Binding to N-Flo5p, in words” value (N-Flo5p) of the same molecule?
Answer: No binding

Question: With `OC[C@H]1OC(O)[C@@H](O)[C@@H](O)[C@@H]1O` (stereo partly drawn) [M (Man), D-mannose] as the molecule, how does the Kd (N-Flo1p [1]) read?
Answer: 8.7 ± 0.43 mM

Question: What about the “Affinity / interaction with N-Flo1p, in words” value (“Affinity / interaction” for short) (N-Flo1p [1]; fluorescence titration, listed as D-mannose) of the same molecule?
Answer: low-millimolar range

Question: What about the “Affinity / interaction” value (N-Flo1p [1]; fluorescence titration, listed as mannose) of the same molecule?
Answer: millimolar range

Question: And the “KD range for N-Lg-Flo1p, in words” value (N-Lg-Flo1p [4])?
Answer: high micromolar range

Question: Which “Affinity / interaction” value (N-Flo1p [1]; fluorescence titration) does the source give for `OC[C@H]1OC(O)[C@H](O)[C@@H](O)[C@@H]1O` (some centres unmarked) [Glc, glucose] here?
Answer: very weakly

Question: And the “Binding to N-Flo5p, in words” value (N-Flo5p)?
Answer: very weakly

Question: What does the source list for `OC[C@H]1O[C@H](OC[C@H]2OC(O)[C@@H](O)[C@@H](O)[C@@H]2O)[C@@H](O)[C@@H](O)[C@@H]1O` (stereo partly drawn) [Mα-1,6-M, α-1,6-linked mannobiose]?
Answer: Kd (N-Flo1p [1]; [6]): 6.9 ± 0.64 mM; Binding to N-Flo5p, in words (N-Flo5p): No binding

B1: N-deglycosylated N-Flo1p: N-Flo1p after removal of the N-glycans with endo-β-N-acetylglucosaminidase H (protein)
chain: T1 sequence (P32768 23-271)
modifications: N-glycans removed with EndoH (GlcNAc residues remain); O-glycans (5 or 6 mannoses) present
Question: For B1, which “Binding of N-deglycosylated N-Flo1p to immobilized N-deglycosylated N-Flo1p” value (N-Flo1p [5]) is on record?
Answer: almost no binding
